The record followed here is patent publication US20140057915A1, “KINASE INHIBITORS” (TOPIVERT PHARMA LIMITED, priority 2012, published 2014).

For data set [1], the target named is cSrc (Homo sapiens, UniProt P12931). Kind of data set: c-Src enzyme inhibition (FRET). The format is biochemical. As to conditions: Table 4a1. In short, it runs like this:
(§1)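 Enzyme was preincubated with test compound (added as 4, 0.4, 0.04 or 0.004 μg/mL solutions) for 2 hr at RT. FRET peptide (8 μM solution) and ATP solution (800 μM for c-Src, 60 μM for Syk) were then added for 1 hr, followed by 1 hr protease development.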

Data set [2] deals with Syk (Homo sapiens, UniProt P43405). Put plainly: Syk enzyme inhibition (FRET). The data set is classed as biochemical. The settings on record: Table 4a1. In short, it runs like this: as §1
Data set [3] deals with GSK3α (Homo sapiens, UniProt P49840). Kind of data set: GSK 3α enzyme inhibition (FRET), Method 1. The format is biochemical. The settings on record: Table 4a1. In short, it runs like this:
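Steps: preincubate GSK3α with compound 2 hr at room temperature; start reaction with peptide and ATP for 1 hr; develop with site-specific protease for 1 hr; measure fluorescence and take the coumarin/fluorescein ratio as the phosphorylation level.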

Data set [4] deals with TNFα release, d-U937 cells. Kind of data set: LPS-induced TNFα release in d-U937 cells. The data set is classed as cell-based. The settings on record: Homo sapiens, dU937; relative to 10 μg/mL BIRB796; Table 4c1; read-out: LPS Induced Release of Cytokine in d-U937 Cells, TNFα REC50. Summed up:
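Sandwich ELISA quantifies cytokine in supernatants after 4 hr LPS challenge (0.1 μg/mL) of PMA-differentiated (100 ng/mL, 48–72 hr) U937 macrophages given compound 2 hr beforehand. REC50 derived from concentration-response curve, inhibition calculated relative to vehicle.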

For data set [5], the system named is IL-8 release, d-U937 cells. Kind of data set: LPS-induced IL-8 release in d-U937 cells. The format is cell-based. As to conditions: Homo sapiens, dU937; Table 4c1; read-out: LPS Induced Release of Cytokine in d-U937 Cells, IL-8 IC50. Summed up:
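IL-8 release after a 4 hr challenge with LPS (0.1 μg/mL, E. coli 0111:B4) following a 2 hr compound pretreatment. Cells were human U937 monocytes differentiated to macrophage-type with PMA 100 ng/mL for 48–72 hr. Relative 50% effective concentration derived from concentration–response data.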

The subject of data set [6] is ICAM-1 expression, BEAS2B cells. Kind of data set: Poly I:C-induced ICAM-1 expression in BEAS2B cells. The data set is classed as cell-based. The settings on record: Homo sapiens, BEAS-2B; read-out: Poly IC induced ICAM1 in BEAS2B, IC50. Summed up:
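Cell-based ELISA for surface ICAM-1 in human BEAS2B cells 18 h after transfection with the RNA-virus mimic poly I:C (1 μg/mL, with Oligofectamine), compounds added 2 h beforehand. OD450–655 divided by Crystal Violet OD595 per well; percent inhibition relative to vehicle.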

Data set [7] relates to d-U937 cells. Put plainly: Cell viability: MTT assay. The data set is classed as cell-based, human. The settings on record: 1 μg/mL. In short, it runs like this: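 MTT reduction (1 h, DMSO solubilisation, A550) measured after compound treatment at 1 or 10 μg/mL of differentiated U937 cells for 4 h (5% FCS RPMI1640) or 24 h (10% FCS). Percentage viability loss computed relative to 0.5% DMSO vehicle, with increases tabulated as negative values.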

Chain of cSrc (P12931 whole entry): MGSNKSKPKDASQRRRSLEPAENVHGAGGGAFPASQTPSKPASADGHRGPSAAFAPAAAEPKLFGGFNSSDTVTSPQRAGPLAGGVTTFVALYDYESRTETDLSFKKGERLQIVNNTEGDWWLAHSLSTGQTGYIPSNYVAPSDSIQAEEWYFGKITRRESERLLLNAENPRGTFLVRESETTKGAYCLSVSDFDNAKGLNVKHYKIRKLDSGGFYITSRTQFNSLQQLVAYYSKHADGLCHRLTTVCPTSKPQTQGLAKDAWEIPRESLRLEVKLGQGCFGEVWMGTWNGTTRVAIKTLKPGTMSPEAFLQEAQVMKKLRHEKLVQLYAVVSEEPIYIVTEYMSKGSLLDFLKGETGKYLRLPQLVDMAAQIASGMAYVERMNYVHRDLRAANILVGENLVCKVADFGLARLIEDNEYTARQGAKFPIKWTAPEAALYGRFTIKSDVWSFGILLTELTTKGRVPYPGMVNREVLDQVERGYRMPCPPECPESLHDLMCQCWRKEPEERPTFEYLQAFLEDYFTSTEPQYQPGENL
Chain of GSK3α (P49840 whole entry): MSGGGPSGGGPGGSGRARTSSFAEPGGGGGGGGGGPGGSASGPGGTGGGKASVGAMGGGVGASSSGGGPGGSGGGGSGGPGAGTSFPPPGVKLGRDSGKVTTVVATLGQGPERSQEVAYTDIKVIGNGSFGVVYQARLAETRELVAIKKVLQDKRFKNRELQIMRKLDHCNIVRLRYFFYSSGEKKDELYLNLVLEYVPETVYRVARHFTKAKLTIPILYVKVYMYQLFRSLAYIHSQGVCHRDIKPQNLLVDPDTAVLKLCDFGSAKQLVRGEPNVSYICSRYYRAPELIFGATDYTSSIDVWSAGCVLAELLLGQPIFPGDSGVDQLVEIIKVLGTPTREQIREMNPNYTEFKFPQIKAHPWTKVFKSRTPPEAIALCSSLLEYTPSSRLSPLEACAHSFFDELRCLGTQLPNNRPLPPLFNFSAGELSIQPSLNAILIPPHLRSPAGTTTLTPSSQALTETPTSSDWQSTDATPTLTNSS

Broadly, the IC50 is the concentration needed to halve the response being measured. On to `Cc1ccc(-n2nc(C(C)(C)C)cc2NC(=O)Nc2ccc(Oc3ccnc(Nc4cccc(C(=O)N5CCOCC5)c4)n3)c3ccccc23)cc1` [Example 27, 1-(3-(tert-butyl)-1-(p-tolyl)-1H-pyrazol-5-yl)-3-(4-((2-((3-(morpholine-4-carbonyl)phenyl)amino)pyrimidin-4-yl)oxy)naphthalen-1-yl)urea], for which the IC50 was 4 nM in data set [1]; 39 nM in data set [2]; 311 nM in data set [3]; 4.1 nM in data set [5]; 11.6 nM in data set [6]. Also, the EC50 in data set [4] was found to be 1.4 nM. The “Cell viability at time point in d-U937 cells, 4 h” value in data set [7] is “−ve (−ve and +ve indicate that the value is below and above respectively, the no significant effect threshold, defined as 30% inhibition at 1 μg/mL at the time point indicated)”. Further, the “Cell viability at time point in d-U937 cells, 24 h” value (“Cell viability at time point … 24 h” below) in data set [7] was “−ve (−ve and +ve indicate that the value is below and above respectively, the no significant effect threshold, defined as 30% inhibition at 1 μg/mL at the time point indicated)”.

Turning to `COc1ccc(C(=O)NCCN(C)C)cc1Nc1nccc(Oc2ccc(NC(=O)Nc3cc(C(C)C)nn3-c3ccc(C)cc3)c3ccccc23)n1` [Example 28, N-(2-(dimethylamino)ethyl)-3-((4-((4-(3-(3-isopropyl-1-(p-tolyl)-1H-pyrazol-5-yl)ureido)naphthalen-1-yl)oxy)pyrimidin-2-yl)amino)-4-methoxybenzamide], the IC50 in data set [1] was under 1 nM; in data set [2], 54 nM; in data set [3], over 14000 nM; in data set [5], 32.4 nM; in data set [6] it was 140 nM. The EC50 in data set [4] is 2.2 nM. Besides, the “Cell viability at time point in d-U937 cells, 4 h” value in data set [7] is “−ve (−ve and +ve indicate that the value is below and above respectively, the no significant effect threshold, defined as 30% inhibition at 1 μg/mL at the time point indicated)”. Moreover, in data set [7], the “Cell viability at time point … 24 h” value was “−ve (−ve and +ve indicate that the value is below and above respectively, the no significant effect threshold, defined as 30% inhibition at 1 μg/mL at the time point indicated)”.

Consider `COc1ccc(C(=O)NCCN2CCOCC2)cc1Nc1nccc(Oc2ccc(NC(=O)Nc3cc(C(C)(C)C)nn3-c3ccc(C)cc3)c3ccccc23)n1` [Example 31, 3-((4-((4-(3-(3-(tert-butyl)-1-(p-tolyl)-1H-pyrazol-5-yl)ureido)naphthalen-1-yl)oxy)pyrimidin-2-yl)amino)-4-methoxy-N-(2-morpholinoethyl)benzamide], for which the IC50 was found to be 3 nM in data set [1]; 51 nM in data set [2]; 9630 nM in data set [3]; 7.1 nM in data set [5]; 12 nM in data set [6]. The EC50 in data set [4] amounted to 2.8 nM. The “Cell viability at time point in d-U937 cells, 4 h” value in data set [7] is “−ve (−ve and +ve indicate that the value is below and above respectively, the no significant effect threshold, defined as 30% inhibition at 1 μg/mL at the time point indicated)”. Also, the “Cell viability at time point … 24 h” value in data set [7] was “−ve (−ve and +ve indicate that the value is below and above respectively, the no significant effect threshold, defined as 30% inhibition at 1 μg/mL at the time point indicated)”.

Take `COc1ccc(C(=O)NCCO)cc1Nc1nccc(Oc2ccc(NC(=O)Nc3cc(C(C)C)nn3-c3ccc(C)cc3)c3ccccc23)n1` [Example 32, N-(2-hydroxyethyl)-3-((4-((4-(3-(3-isopropyl-1-(p-tolyl)-1H-pyrazol-5-yl)ureido)naphthalen-1-yl)oxy)pyrimidin-2-yl)amino)-4-methoxybenzamide]: the IC50 in data set [1] was under 2 nM; in data set [2] it was 152 nM; in data set [3] it was over 14600 nM; in data set [5], 17.1 nM; in data set [6], 86.7 nM. For the same compound, the EC50 in data set [4] was found to be 3.1 nM. Moreover, the “Cell viability at time point in d-U937 cells, 4 h” value in data set [7] is “−ve (−ve and +ve indicate that the value is below and above respectively, the no significant effect threshold, defined as 30% inhibition at 1 μg/mL at the time point indicated)”. Further, the “Cell viability at time point … 24 h” value in data set [7] was “−ve (−ve and +ve indicate that the value is below and above respectively, the no significant effect threshold, defined as 30% inhibition at 1 μg/mL at the time point indicated)”.

On to `COc1ccc(C(=O)NCCO)cc1Nc1nccc(Oc2ccc(NC(=O)Nc3cc(C(C)(C)C)nn3-c3ccc(C)cc3)c3ccccc23)n1` [Example 33, 3-((4-((4-(3-(3-(tert-butyl)-1-(p-tolyl)-1H-pyrazol-5-yl)ureido)naphthalen-1-yl)oxy)pyrimidin-2-yl)amino)-N-(2-hydroxyethyl)-4-methoxybenzamide], for which the IC50 is 3 nM in data set [1]; 98 nM in data set [2]; over 14300 nM in data set [3]; 4.2 nM in data set [5]; 143 nM in data set [6]. In addition, in data set [4], the EC50 came out at 1.5 nM. In addition, the “Cell viability at time point in d-U937 cells, 4 h” value in data set [7] was “−ve (−ve and +ve indicate that the value is below and above respectively, the no significant effect threshold, defined as 30% inhibition at 1 μg/mL at the time point indicated)”. The “Cell viability at time point … 24 h” value in data set [7] was “−ve (−ve and +ve indicate that the value is below and above respectively, the no significant effect threshold, defined as 30% inhibition at 1 μg/mL at the time point indicated)”.

Consider `COc1ccc(-n2nc(C(C)C)cc2NC(=O)Nc2ccc(Oc3ccnc(Nc4cc(C(=O)NCCO)ccc4OC)n3)c3ccccc23)cc1` [Example 34, N-(2-hydroxyethyl)-3-((4-((4-(3-(3-isopropyl-1-(4-methoxyphenyl)-1H-pyrazol-5-yl)ureido)naphthalen-1-yl)oxy)pyrimidin-2-yl)amino)-4-methoxybenzamide], for which the IC50 is 2 nM in data set [1]; 85 nM in data set [2]; over 14200 nM in data set [3]; 73.5 nM in data set [5]; 79.9 nM in data set [6]. Besides, the EC50 in data set [4] came to 14.2 nM. The “Cell viability at time point in d-U937 cells, 4 h” value in data set [7] was “+ve (−ve and +ve indicate that the value is below and above respectively, the no significant effect threshold, defined as 30% inhibition at 1 μg/mL at the time point indicated)”. Also, in data set [7], the “Cell viability at time point … 24 h” value was “−ve (−ve and +ve indicate that the value is below and above respectively, the no significant effect threshold, defined as 30% inhibition at 1 μg/mL at the time point indicated)”.

Consider `COc1cc(C(=O)NCCN(C)C)ccc1Nc1nccc(Oc2ccc(NC(=O)Nc3cc(C(C)C)nn3-c3ccc(C)cc3)c3ccccc23)n1` [Example 35, N-(2-(dimethylamino)ethyl)-4-((4-((4-(3-(3-isopropyl-1-(p-tolyl)-1H-pyrazol-5-yl)ureido)naphthalen-1-yl)oxy)pyrimidin-2-yl)amino)-3-methoxybenzamide], for which the IC50 was under 1 nM in data set [1]; 30 nM in data set [2]; over 14000 nM in data set [3]; 3.2 nM in data set [5]; 140 nM in data set [6]. In addition, in data set [4], the EC50 amounted to 27.8 nM. The “Cell viability at time point in d-U937 cells, 4 h” value in data set [7] was “−ve (−ve and +ve indicate that the value is below and above respectively, the no significant effect threshold, defined as 30% inhibition at 1 μg/mL at the time point indicated)”. Further, the “Cell viability at time point … 24 h” value in data set [7] was “−ve (−ve and +ve indicate that the value is below and above respectively, the no significant effect threshold, defined as 30% inhibition at 1 μg/mL at the time point indicated)”.

In the case of `COc1cc(C(=O)NCCN2CCOCC2)ccc1Nc1nccc(Oc2ccc(NC(=O)Nc3cc(C(C)(C)C)nn3-c3ccc(C)cc3)c3ccccc23)n1` [Example 37, 4-((4-((4-(3-(3-(tert-butyl)-1-(p-tolyl)-1H-pyrazol-5-yl)ureido)naphthalen-1-yl)oxy)pyrimidin-2-yl)amino)-3-methoxy-N-(2-morpholinoethyl)benzamide], the IC50 in data set [1] is 27 nM; in data set [2], 149 nM; in data set [3], over 13000 nM; in data set [5], 24.1 nM; in data set [6], 19.6 nM. The EC50 in data set [4] turned out to be 3.7 nM. The “Cell viability at time point in d-U937 cells, 4 h” value in data set [7] is “−ve (−ve and +ve indicate that the value is below and above respectively, the no significant effect threshold, defined as 30% inhibition at 1 μg/mL at the time point indicated)”. For the same compound, in data set [7], the “Cell viability at time point … 24 h” value was “−ve (−ve and +ve indicate that the value is below and above respectively, the no significant effect threshold, defined as 30% inhibition at 1 μg/mL at the time point indicated)”.
